Data: patent US20160368872A1, “COMPOUNDS AND METHODS FOR TREATING CANCERS” (HEALTH RESEARCH, INC., priority 2013, published 2016)

What was measured:
[1] = aqueous solubility (pH 7.4); format: physicochemical
[2] = tested on: PC3; test: inhibition of growth of cell lines (IC50 categories); format: cell-based; details: Homo sapiens, PC-3
Description: (§1) This example provides a table (below) of the compounds of the present disclosure and their activity towards four different cell lines (i.e., CWR22R, Hela, PC3, and MDA-MB-231). The IC50 for inhibition of growth is divided into 4 categories: A<1 μM, B 1-5 μM, […], D>20 μM.
(§2) All compounds were tested for toxicity using 4 cells lines, target cells-CWR22R and non-target cells, Hela, PC3 and MDA-MB-231 (FIGS. 1A-F).

[3] = tested on: CWR22R; test: as above; format: cell-based; details: Homo sapiens, 22Rv1
Description: as §1, §2

[4] = tested on: MDA-MB-231; test: as above; format: cell-based; details: Homo sapiens
Description: as §1, §2

[5] = tested on: Hela; test: as above; format: cell-based; details: Homo sapiens
Description: as §1, §2

[6] = tested on: CWR22R tumors; test: in vivo efficacy, subcutaneous xenografts of CWR22R cells in SCID mice; details: 5 IV daily injections or 10 IP daily injections
Description: (§3) We tested these compounds in an in vivo efficacy experiment using model of CRPC in SCID mice, CWR22R. Two compounds, PLA1079 and 1125, which were synthesized in the amount of 500 mg were tested in full scale experiment with either 5 IV daily injections or 10 IP daily injections. After 5 IP or IV injections intra-tumor concentration of the compounds were measured in few mice from this experiment.
(§4) Two other compounds, PLA1148 and 1098 (PK testing in FIGS. 8 and 9) were tested in a small scale efficacy experiment. Upon PK testing of the compound PLA1148 one mouse was injected twice with 10 min interval. However the concentration of the drug in plasma of this mouse was not twice, but >4 times higher than in mice injected once. […] It was decided to utilize this observation in an attempt to get higher plasma and tumor concentration of both compounds. Therefore in the pilot efficacy experiment in the same model of CWR22R cells mice were treated with 2 IP injections with 10 minute interval. Treatment with PLA1098 was carried out for two days. […] However this is so far the highest concentration found in tumor.
Pilot efficacy experiments were run for compounds: PLA1163, PLA1148 using the same model of subcutaneous xenografts of CWR22R cells in SCID mice (FIGS. 18 and 19).

[7] = plasma concentration after intravenous and intraperitoneal injections (PK); format: in vivo
[8] = tissue drug concentrations in mice bearing CWR22R tumors; format: in vivo, SCID mice; details: 100 mg/kg, IP/IV
Description: as §3
as §4, with “tumor. […]” for “tumor.”

[9] = tested on: CWR22R cells; format: cell-based
Description: as §2
LC50 data of in vitro 72 hours cytotoxicity assay are included in this table for comparison.

SMILES	IC50 [2]	IC50 [3]	IC50 [4]	IC50 [5]	also measured
O=c1c2ccc3c(c2ccn1CCO)c1ccccc1n3CCCF [PLA1192]					Aqueous Solubility Classification [1]: Moderate; Aqueous Solubility (pH 7.4) [1]: 15 μM
CC(=O)c1ccc2c(c1)c1c3c(ccc1n2CCCF)C(=O)CC3 [PLA1198]					Aqueous Solubility Classification [1]: Low; Aqueous Solubility (pH 7.4) [1]: 2.5 μM
O=C1CCc2c1ccc1c2c2c(F)cccc2n1CCCF [Compound 1-14]	> 20 µM	< 1 µM	> 20 µM	> 20 µM	
CCCn1c2ccccc2c2c3cc[nH]c(=O)c3ccc21 [Compound 3-1, 7-Propyl-3H,7H-pyrido[3,4-c]carbazol-4-one]	> 20 µM	< 1 µM	> 20 µM	> 20 µM	
O=C1CCc2c1ccc1c2c2cc(Br)ccc2n1CCCF [PLA1199]					Aqueous Solubility Classification [1]: Low; Aqueous Solubility (pH 7.4) [1]: 2.3 μM
O=c1[nH]ccc2c1ccc1c2c2ncccc2n1CCCF [Compound 13-1, 7-(3-Fluoropropyl)-3,7-dihydro-3,7,11-triaza-benzo[c]fluoren-4-one]	> 20 µM	< 1 µM	> 20 µM	> 20 µM	
O=c1c2ccc3c(c2ccn1CCN1CCCC1)c1ccccc1n3CCCF [PLA1193]					Aqueous Solubility Classification [1]: High; Aqueous Solubility (pH 7.4) [1]: 140 μM
O=C1NCCc2c1ccc1c2c2ccccc2n1CCCF [Compound 2-2]	> 20 µM	< 1 µM	> 20 µM	> 20 µM	
O=c1[nH]c2ccc3c(c4ccccc4n3CCCF)c2o1 [Compound 8-2]	> 20 µM	< 1 µM	5 to 20 µM	5 to 20 µM	
O=c1c2ccc3c(c2ccn1CCO)c1ccccc1n3CCCF [Compound 4-3]	> 20 µM	5 to 20 µM	> 20 µM	> 20 µM	
NC(=O)c1cccc2c1c1c3cc[nH]c(=O)c3ccc1n2CCCF [Compound 8-4]	> 20 µM	5 to 20 µM	> 20 µM	> 20 µM	
O=C1NCc2c1ccc1c2c2ccccc2n1CCCF [Compound 1-11]	> 20 µM	< 1 µM	> 20 µM	> 20 µM	
O=C1NCCCc2c1ccc1c2c2ccccc2n1CCCF [Compound 2-3]	> 20 µM	1 to 5 µM	5 to 20 µM	5 to 20 µM	
CCCn1c2ccccc2c2c3occc(=O)c3ccc21 [Compound 3-3]	> 20 µM	< 1 µM	5 to 20 µM	> 20 µM	
CCCn1c2ccccc2c2c3c(ccc21)C(=O)CC3 [Compound 1-1, 6-Propyl-1,2-dihydro-6H-cyclopenta[c]carbazol-3-one]	> 20 µM	< 1 µM	> 20 µM	> 20 µM	
FCCCn1c2ccccc2c2cc(-c3nnco3)ccc21 [PLA1125]					in vivo efficacy [6]: absence of in vivo efficacy; bioavailability through IP injection ([7]; IP versus IV, doses 50-100 mg/kg): very high bioavailability; course of plasma concentration ([7]; after intravenous and intraperitoneal injections, 50-100 mg/kg): fast reduction of concentration during the first hour; Tumor concentration [8]: 7 to 10 nM; CC50 [9]: 0.1 µM
O=C1NCCOc2c1ccc1c2c2ncccc2n1CCCF [Compound 11-3]	> 20 µM	1 to 5 µM	> 20 µM	> 20 µM	
CC(=O)c1ccc2c(c1)c1c3c(ccc1n2CCCF)C(=O)CC3 [Compound 1-15]	> 20 µM	1 to 5 µM	> 20 µM	> 20 µM	
CCCn1c2ccccc2c2c3c(ccc21)C(=O)NCC3 [Compound 2-1, 7-Propyl-2,3-dihydro-1H,7H-pyrido[3,4-c]carbazol-4-one]	> 20 µM	< 1 µM	> 20 µM	> 20 µM	
O=C1COc2c(ccc3c2c2ncccc2n3CCCF)N1 [Compound 13-2]	> 20 µM	5 to 20 µM	> 20 µM	> 20 µM	
O=c1[nH]ccc2c1ccc1c2c2ccccc2n1CCCF [Compound 3-2]	> 20 µM	< 1 µM	> 20 µM	> 20 µM	

SMILES	IC50 [2]	IC50 [3]	IC50 [4]	IC50 [5]	also measured
CCCn1c2cccnc2c2c3cc[nH]c(=O)c3ccc21 [Compound 12-1, 7-Propyl-3,7-dihydro-3,7,11-triazabenzo[c]fluoren-4-one]	> 20 µM	5 to 20 µM	> 20 µM	> 20 µM	
N#Cc1cccc2c1c1c3cc[nH]c(=O)c3ccc1n2CCCF [PLA1195]					Aqueous Solubility Classification [1]: Low; Aqueous Solubility (pH 7.4) [1]: 2.7 μM
O=C1CCCc2c1ccc1c2c2ccccc2n1CCCF [Compound 1-5]	> 20 µM	< 1 µM	> 20 µM	> 20 µM	
O=C1CCOc2c1ccc1c2c2ccccc2n1CCCF [Compound 1-9]	> 20 µM	< 1 µM	> 20 µM	> 20 µM	
CCCn1c2cccnc2c2c3ccn(C)c(=O)c3ccc21 [Compound 10-9]	> 20 µM	< 1 µM	> 20 µM	> 20 µM	
CN1Cc2c(ccc3c2c2ccccc2n3CCC(F)F)C1=O [PLA1194]					Aqueous Solubility Classification [1]: Moderate; Aqueous Solubility (pH 7.4) [1]: 18 μM
CCCn1c2cccnc2c2c3c(ccc21)C(=O)NC3 [Compound 10-5]	> 20 µM	1 to 5 µM	> 20 µM	> 20 µM	
CN1Cc2c(ccc3c2c2ccccc2n3CCCF)C1=O [Compound 4-2]	> 20 µM	< 1 µM	1 to 5 µM	5 to 20 µM	
O=c1[nH]ncc2c1ccc1c2c2ccccc2n1CCCF [Compound 5-3]	> 20 µM	< 1 µM	> 20 µM	> 20 µM	
CCCn1c2ccccc2c2c3c(ccc21)C(=O)CO3 [Compound 1-6]	> 20 µM	< 1 µM	> 20 µM	> 20 µM	
O=c1[nH]cnc2c1ccc1c2c2ccccc2n1CCCF [Compound 5-2]	> 20 µM	< 1 µM	> 20 µM	> 20 µM	
O=C1NCCOc2c1ccc1c2c2ccccc2n1CCCF [Compound 2-5]	> 20 µM	< 1 µM	> 20 µM	> 20 µM	
CC(=O)c1ccc2c(c1)c1c(C(N)=O)cccc1n2CCCF [PLA1191]					Aqueous Solubility Classification [1]: High; Aqueous Solubility (pH 7.4) [1]: 130 μM
NC(=O)c1cccc2c1c1c3cc[nH]c(=O)c3ccc1n2CCCF [PLA1196]					Aqueous Solubility Classification [1]: Moderate; Aqueous Solubility (pH 7.4) [1]: 26 μM
CCCn1c2ccccc2c2c3c(ccc21)C(=O)CCO3 [Compound 1-8]	> 20 µM	< 1 µM	> 20 µM	> 20 µM	
O=C1CCc2c1ccc1c2c2cc(Br)ccc2n1CCCF [Compound 1-16]	> 20 µM	1 to 5 µM	> 20 µM	> 20 µM	
O=c1[nH]ccc2c1ccc1c2c2ncccc2n1CCCF [PLA1181]					Aqueous Solubility Classification [1]: Low
O=C1Cc2ccc3c(c2CN1)c1ccccc1n3CCCF [Compound 1-12]	> 20 µM	< 1 µM	> 20 µM	> 20 µM	
CCCn1c2ccccc2c2c3c(ccc21)C(=O)N(C)C3 [Compound 4-1, 2-Methyl-6-propyl-1,2-dihydro-6H-pyrrolo[3,4-c]carbazol-3-one]	> 20 µM	< 1 µM	< 1 µM	1 to 5 µM	
O=C1CCCc2c(ccc3c2c2ccccc2n3CCCF)N1 [Compound 2-4]	5 to 20 µM	< 1 µM	> 20 µM	5 to 20 µM	
Cn1ccc2c(ccc3c2c2ncccc2n3CCCF)c1=O [Compound 10-10]	> 20 µM	< 1 µM	> 20 µM	> 20 µM	
